According to patent US9718790B2, “Triazine derivative and pharmaceutical composition having an analgesic activity comprising the same” (SHIONOGI & CO., LTD., priority 2010, dated 2017):

molecular target: human P2X3 receptor (Homo sapiens (Human), UniProt P56373); experiment: Evaluation of human P2X3 receptor inhibitory activity (Fluo-3 calcium fluorescence, FDSS 3000, ATP stimulation); type: cell-based; conditions: C6BU-1 cells stably expressing human P2X3 receptor;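 further: stimulus was 50 nM ATP with fluorescence followed for 3 min, and the response per well was peak post-ATP fluorescence divided by the reading at measurement start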
Sequence (P56373 whole entry): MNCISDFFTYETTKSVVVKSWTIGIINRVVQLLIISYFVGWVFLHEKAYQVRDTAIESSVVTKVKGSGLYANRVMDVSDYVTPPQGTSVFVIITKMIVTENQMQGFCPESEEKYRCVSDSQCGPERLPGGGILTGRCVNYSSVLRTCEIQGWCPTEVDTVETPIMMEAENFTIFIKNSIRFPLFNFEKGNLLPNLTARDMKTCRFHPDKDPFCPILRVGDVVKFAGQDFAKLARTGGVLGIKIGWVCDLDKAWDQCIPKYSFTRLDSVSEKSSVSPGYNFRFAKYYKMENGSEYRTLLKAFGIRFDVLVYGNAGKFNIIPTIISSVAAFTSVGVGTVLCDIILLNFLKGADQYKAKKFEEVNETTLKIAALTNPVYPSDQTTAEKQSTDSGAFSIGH

**Q.** For `Cc1cc(/N=c2\[nH]c(=O)n(C[C@H](C)C(=O)NCC(F)(F)F)c(=O)n2Cc2ccc(Cl)cc2)ccc1OC(C)C` [Compound I-0726], which IC50 is on record?
**A.** 16 nM

**Q.** For `Cc1[nH]c2ccc(/N=c3\[nH]c(=O)n(C[C@H](O)CO)c(=O)n3Cc3ccc(Cl)cc3)cc2c1C` [Compound I-2043], which IC50 is on record?
**A.** 9 nM

**Q.** For `COC(=O)CCn1c(=O)[nH]/c(=N\c2ccc(OC(C)C)c(Cl)c2)n(Cc2ccc(C)cc2)c1=O` [Compound I-2023], which IC50 is on record?
**A.** 4 nM

**Q.** Which IC50 does the source give for `COC(=O)[C@@H](C)Cn1c(=O)[nH]/c(=N\c2ccc(C=C(C)C)nc2)n(Cc2ccc(C)cc2)c1=O` [Compound I-1301] here?
**A.** 514 nM

**Q.** Which IC50 does the source give for `CCOC(=O)CCn1c(=O)[nH]/c(=N\c2ccc(CC(C)C)c(C)c2)n(Cc2ccc(Cl)cc2)c1=O` [Compound I-1251] here?
**A.** 17 nM

**Q.** How did the IC50 turn out when `Cc1ccc(Cn2c(=O)n([C@@H](C)[C@@H](C)C(=O)O)c(=O)[nH]/c2=N\c2ccc3nc(C)sc3c2)cc1` [Compound I-1470] was run?
**A.** 10 nM

**Q.** Which IC50 does the source give for `CCn1c(=O)[nH]/c(=N\c2ccc(Oc3nc(C(=O)O)co3)cc2)n(Cc2ccc(Cl)cc2)c1=O` [Compound I-2190] here?
**A.** 33 nM

**Q.** Which IC50 does the source give for `COc1ccc(/N=c2\[nH]c(=O)n(C[C@H](C)C(=O)O)c(=O)n2Cc2ccc(Cl)cc2)cc1Cl` [Compound I-0724] here?
**A.** 250 nM

**Q.** For `Cc1ccc(Cn2c(=O)n(C)c(=O)[nH]/c2=N\c2ccc(Oc3ccnc(C(=O)O)c3)cc2)cc1` [Compound I-2100], which IC50 is on record?
**A.** 7 nM

**Q.** `CCn1c(=O)[nH]/c(=N\c2ccc(Oc3ccc(C(N)=O)nc3)cc2)n(Cc2ccc(Cl)cc2)c1=O` [Compound I-2119] was tested. Which IC50 did it give?
**A.** 1 nM

same assay, conditions: C6BU-1 cells stably expressing human P2X3 receptor, Fluo-3 fluorescence, FDSS 3000

**Q.** With `C[C@@H](C(=O)O)[C@H](C)n1c(=O)[nH]/c(=N\c2ccc3sccc3c2)n(Cc2ccc(Cl)cc2)c1=O` [Compound I-1590] as the compound, how does the IC50 read?
**A.** 998 nM

**Q.** Which IC50 does the source give for `COC(=O)[C@@H](C)Cn1c(=O)[nH]/c(=N\c2ccc(Cl)c(Cl)c2)n(Cc2ccc(C)cc2)c1=O` [Compound I-0998] here?
**A.** 24 nM

**Q.** `Cc1ccc(Cn2c(=O)n(C[C@H](C)C(=O)O)c(=O)[nH]/c2=N\c2ccc(OC(C)C)c(C#N)c2)cc1` [Compound I-0961] was tested. Which IC50 did it give?
**A.** 74 nM

**Q.** Which IC50 does the source give for `CC[C@@H](C)Oc1ccc(/N=c2\[nH]c(=O)n(CCCO)c(=O)n2Cc2ccc(Cl)cc2)cc1Cl` [Compound I-1623] here?
**A.** 7 nM

**Q.** How did the IC50 turn out when `COC(=O)Cn1c(=O)[nH]/c(=N\c2ccc(Oc3ccc(C)nc3)cc2)n(Cc2ccc(Cl)cc2)c1=O` [Compound I-1904] was run?
**A.** 8 nM

**Q.** For `CCOc1ccc(/N=c2\[nH]c(=O)n(C[C@H](C)C(=O)O)c(=O)n2Cc2ccc(C)cc2)cc1Br` [Compound I-1179], which IC50 is on record?
**A.** 33 nM

**Q.** How did the IC50 turn out when `CCOC(=O)CCCn1c(=O)[nH]/c(=N\c2ccc3oc(CC)c(C)c3c2)n(Cc2ccc(C)cc2)c1=O` [Compound I-1627] was run?
**A.** 9 nM

same assay, conditions: human P2X3 receptor, Test Example 1

**Q.** With `COCCn1c(=O)[nH]/c(=N\c2ccc(Oc3cccc(C#N)n3)cc2)n(Cc2ccc(Cl)cc2)c1=O` [Compound I-2538] as the compound, how does the IC50 read?
**A.** 3 nM

**Q.** With `CCn1c(=O)[nH]/c(=N\c2ccc(Oc3ccc(NCC(=O)O)nc3)cc2)n(Cc2ccc(Cl)cc2)c1=O` [Compound I-2622] as the compound, how does the IC50 read?
**A.** 5 nM

**Q.** For `CCn1c(=O)[nH]/c(=N\c2ccc(Oc3cnc(C#N)cn3)cc2)n(Cc2ccc(Cl)cc2)c1=O` [Compound I-2427], which IC50 is on record?
**A.** 2 nM

**Q.** How did the IC50 turn out when `CCn1c(=O)[nH]/c(=N\c2ccc(Oc3cccc(C(=O)NC#N)n3)cc2)n(Cc2ccc(Cl)cc2)c1=O` [Compound I-2593] was run?
**A.** 1 nM

**Q.** How did the IC50 turn out when `O=c1[nH]/c(=N\c2ccc(Oc3cccc(O)n3)cc2)n(Cc2ccc(Cl)cc2)c(=O)n1CC(CO)CO` [Compound I-2685] was run?
**A.** 12 nM

**Q.** `CCn1c(=O)[nH]/c(=N\c2ccc(Oc3cncc(C(=O)O)n3)cc2)n(Cc2ccc(Cl)cc2)c1=O` [Compound I-2282] was tested. Which IC50 did it give?
**A.** < 4 nM

**Q.** With `CCn1c(=O)[nH]/c(=N\c2ccc(Oc3cccc(C#N)n3)cc2)n(Cc2ccc(Cl)cn2)c1=O` [Compound I-2373] as the compound, how does the IC50 read?
**A.** 33 nM

**Q.** For `CNC(=O)Cn1c(=O)[nH]/c(=N\c2ccc(Oc3ccon3)c(F)c2)n(Cc2ccc(Cl)cc2)c1=O` [Compound I-2587], which IC50 is on record?
**A.** 7 nM

**Q.** With `CCn1c(=O)[nH]/c(=N\c2ccc(Oc3cnccn3)cc2)n(Cc2ccc(Cl)cc2)c1=O` [Compound I-2642] as the compound, how does the IC50 read?
**A.** 11 nM
